In article PMC12196213, “New Insights into the Anticancer Effects and Toxicogenomic Safety of Two β-Lapachone Derivatives” (Pharmaceuticals, 2025):
pIC50: −log10 of the molar value. Several values for one entry are separate records, joined by “and”; a condition that tells them apart may be missing. Equal entries are not always repeated.

Key:
[1] = system: HCT-116 (human colon carcinoma); test: MTT cytotoxicity assay, HCT-116; assay type: cell-based; details: for pIC50: Homo sapiens, HCT-116, 72 h, MTT; for selectivity index (SI): IC50 L929 / IC50 HCT-116, 72 h
Description: (§1) To assess the cytotoxicity of the compounds, the MTT [3-(4,5-dimethylthiazol-2-yl)-2,5-diphenyltetrazolium bromide] assay was employed. The cells (2 × 10^5/mL) were incubated with the substances at concentrations ranging from 0.78 to 25 µg/mL. β-lap was used as a positive control. After 24, 48, or 72 h of incubation, MTT was added at a concentration of 5 mg/mL. Cell viability in different treatments was compared to the negative control using the following formula: Cell viability%=mean absorbance of treated samples/mean absorbance of negative control×100 The IC50 (the concentration that inhibits 50% of cell growth compared to the negative control) was calculated using nonlinear regression in GraphPad Prism 8.0 for Windows (GraphPad Demo Software, San Diego, CA, USA). Experiments were performed in triplicate and in two independent experiments. The protocol is also described in other previous publications. The IC50 of normal and cancer cells was used to calculate the SI of compounds BV3 and BV5. The SI indicated the selectivity of the compounds among the normal cell line (L-929) and a cancer cell line (HCT-116, MDA-MB-231, HepG2, or HeLa). SI is a crucial parameter for therapeutic applications in upcoming clinical trials. Therefore, the following formula was used to calculate SI: SI=IC50(normal cell line)/IC50(cancer cell line)

[2] = system: cancer cells (HeLa, HCT-116, HepG2, MDA-MB-231); test: MTT cytotoxicity assay, cancer cell panel (range over lines); assay type: cell-based; details: Homo sapiens, 72 h
Description: as §1, with “publications.” for “publications. The IC50 of normal and cancer cells was used to calculate the SI of compounds BV3 and BV5. The SI indicated the selectivity of the compounds among the normal cell line (L-929) and a cancer cell line (HCT-116, MDA-MB-231, HepG2, or HeLa). SI is a crucial parameter for therapeutic applications in upcoming clinical trials. Therefore, the following formula was used to calculate SI: SI=IC50(normal cell line)/IC50(cancer cell line)”

HeLa cells = test: Annexin V-FITC / propidium iodide flow cytometry (apoptosis or necrosis); assay type: cell-based, human; details: 48 h; for necrosis compared to negative control: BV3 at the IC50 concentration; for cell viability compared to negative control: IC50 or 2 × IC50
Description: The analysis was performed using flow cytometry with the Annexin V Apoptosis Detection Kit (eBioscience™, USA) following the manufacturer’s instructions. Initially, HeLa cells were incubated at a concentration of 4 × 10^5 cells/mL and treated with the compounds at their IC50 or 2 × IC50 values obtained at 48 h. β-lap was used as a positive control, and the culture medium as the negative control. After 48 h of treatment, the cells were trypsinized and centrifuged at 1200× g for 5 min. Subsequently, the cells were washed with PBS and centrifuged again. The cells were then resuspended in buffer and incubated with 5 µL of Annexin V-FITC for 10 min. Afterward, the cells were washed with the buffer, centrifuged, resuspended in the buffer, and stained with 10 µL of propidium iodide. The cells were acquired using the Guava EasyCyteHT cytometer (Merck-Millipore, Burlington, MA, USA) with Guava—Soft™ software version 2.7. A total of 5000 events were counted per treatment.

[3] = system: HeLa (human cervical adenocarcinoma); test: MTT cytotoxicity assay, HeLa; assay type: cell-based; details: for pIC50: Homo sapiens, HeLa, MTT; for selectivity index (SI): IC50 L929 / IC50 HeLa
Description: as §1

[4] = system: L929 (murine fibroblasts); test: MTT cytotoxicity assay, L929; assay type: cell-based; details: Mus musculus, L929, 72 h
Description: as §1, with “publications.” for “publications. The IC50 of normal and cancer cells was used to calculate the SI of compounds BV3 and BV5. The SI indicated the selectivity of the compounds among the normal cell line (L-929) and a cancer cell line (HCT-116, MDA-MB-231, HepG2, or HeLa). SI is a crucial parameter for therapeutic applications in upcoming clinical trials. Therefore, the following formula was used to calculate SI: SI=IC50(normal cell line)/IC50(cancer cell line)”

GSK3β = GSK3β (Homo sapiens, UniProt P49841); test: ADP-Glo kinase assay; assay type: biochemical; details: for remaining activity at 1 µM: 1 µM compound; for remaining activity at 1 µM / remaining activity at 10 µM: read-out: % of residual activity; for remaining activity at 10 µM: 10 µM compound
Sequence of GSK3β (P49841 whole entry): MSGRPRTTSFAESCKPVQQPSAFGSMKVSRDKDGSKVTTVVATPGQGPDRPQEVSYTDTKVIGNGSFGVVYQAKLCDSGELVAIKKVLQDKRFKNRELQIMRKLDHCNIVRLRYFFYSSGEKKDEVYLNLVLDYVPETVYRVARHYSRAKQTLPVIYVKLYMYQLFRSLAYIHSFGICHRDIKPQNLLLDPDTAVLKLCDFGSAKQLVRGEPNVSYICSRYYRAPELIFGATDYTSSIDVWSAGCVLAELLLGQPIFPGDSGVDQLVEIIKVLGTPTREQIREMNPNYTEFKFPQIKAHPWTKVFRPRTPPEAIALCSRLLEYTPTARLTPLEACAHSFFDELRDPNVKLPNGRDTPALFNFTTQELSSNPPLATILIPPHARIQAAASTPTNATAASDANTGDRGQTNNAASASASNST
Description: (§2) Kinase enzymatic activities of CDK5/p25, CDK9/CyclinT, HASPIN, PIM1, GSK3β, CK1ε, ABL1, and JAK3 were assayed using the luminescent ADP detection assay described in Zegzouti et al. (ADP-GloTM assay kit provided by Promega, Madison, WI, USA). Briefly, the reactions were carried out in appropriate kinase buffer, with either protein or peptide as substrate in the presence of 10 µM ATP. Assay conditions used for each kinase tested here are described in Ibrahim et al.. The Envision (PerkinElmer, Waltham, MA, USA) microplate luminometer was used to measure the transmitted signal expressed in Relative Light Unit (RLU). In order to determine the half maximal inhibitory concentration (IC50), the assays were performed in duplicate in the absence or presence of increasing doses of the tested compounds. Kinase activities are expressed in % of maximal activity, i.e., measured in the absence of inhibitor but with a similar dose of DMSO (solvent of the tested compounds).

ABL1 = ABL1 (Homo sapiens, UniProt P00519); test: ADP-Glo kinase assay; assay type: biochemical; details: 10 µM ATP, read-out: % of residual activity; for remaining activity at 1 µM: ABL1, 1 µM compound; for remaining activity at 10 µM: ABL1, 10 µM compound
Sequence of ABL1 (P00519 whole entry): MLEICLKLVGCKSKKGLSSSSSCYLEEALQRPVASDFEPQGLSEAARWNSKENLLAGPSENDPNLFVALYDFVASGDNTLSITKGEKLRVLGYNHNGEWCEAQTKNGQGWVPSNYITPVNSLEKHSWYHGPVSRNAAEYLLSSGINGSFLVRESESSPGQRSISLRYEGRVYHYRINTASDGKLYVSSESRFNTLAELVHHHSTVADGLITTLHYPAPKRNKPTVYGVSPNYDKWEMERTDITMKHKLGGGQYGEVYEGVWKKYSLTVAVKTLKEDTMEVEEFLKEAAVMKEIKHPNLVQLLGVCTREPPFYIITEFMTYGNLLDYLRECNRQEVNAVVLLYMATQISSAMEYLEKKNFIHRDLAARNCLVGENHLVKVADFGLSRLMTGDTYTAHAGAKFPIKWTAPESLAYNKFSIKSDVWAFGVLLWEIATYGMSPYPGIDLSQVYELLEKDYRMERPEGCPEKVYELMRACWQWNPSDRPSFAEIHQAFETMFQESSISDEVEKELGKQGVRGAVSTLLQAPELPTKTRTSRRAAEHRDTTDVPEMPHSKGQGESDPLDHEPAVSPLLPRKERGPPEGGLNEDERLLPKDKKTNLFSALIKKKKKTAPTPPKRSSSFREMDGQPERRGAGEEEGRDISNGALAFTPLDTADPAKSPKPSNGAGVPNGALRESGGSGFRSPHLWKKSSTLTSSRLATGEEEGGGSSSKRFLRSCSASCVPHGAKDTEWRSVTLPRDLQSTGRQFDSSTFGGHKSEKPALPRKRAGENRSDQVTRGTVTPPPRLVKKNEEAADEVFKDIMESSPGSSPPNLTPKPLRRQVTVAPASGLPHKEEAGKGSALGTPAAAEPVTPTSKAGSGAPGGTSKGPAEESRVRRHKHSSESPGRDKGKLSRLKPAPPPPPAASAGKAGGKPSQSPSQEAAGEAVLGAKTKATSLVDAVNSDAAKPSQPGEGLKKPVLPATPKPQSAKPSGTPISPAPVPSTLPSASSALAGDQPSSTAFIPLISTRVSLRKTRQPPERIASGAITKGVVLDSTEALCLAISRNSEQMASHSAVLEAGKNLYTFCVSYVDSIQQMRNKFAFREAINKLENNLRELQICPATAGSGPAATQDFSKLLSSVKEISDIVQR
Description: as §2

[5] = system: MDA-MB-231 (human breast adenocarcinoma); test: MTT cytotoxicity assay, MDA-MB-231; assay type: cell-based; details: for pIC50: Homo sapiens, MDA-MB-231, MDA-MD-231 (so in the source), 72 h, MTT; for selectivity index (SI): IC50 L929 / IC50 MDA-MD-231, 72 h
Description: as §1

[6] = system: HepG2 (human hepatocellular carcinoma); test: MTT cytotoxicity assay, HepG2; assay type: cell-based; details: for pIC50: Homo sapiens, HepG2, 72 h, MTT; for selectivity index (SI): IC50 L929 / IC50 HepG2, 72 h
Description: as §1

Compound | pIC50 [1] | selectivity index (SI) [1] | pIC50 [2] | necrosis compared to negative control (HeLa cells) | cell viability compared to negative control (HeLa cells) | pIC50 ([3]; 24 h) | pIC50 ([3]; 48 h) | pIC50 ([3]; 72 h) | selectivity index (SI) ([3]; 72 h) | pIC50 [4] | remaining activity at 1 µM (GSK3β; 10 µM ATP) [%] | pIC50 (GSK3β; 10 µM ATP) | remaining activity at 10 µM (GSK3β; 10 µM ATP) [%] | remaining activity at 1 µM (ABL1) [%] | remaining activity at 10 µM (ABL1) [%] | pIC50 [5] | selectivity index (SI) [5] | pIC50 [6] | selectivity index (SI) [6] | further results
CC1(C)CCC2=C(O1)c1ccccc1/C(=N/NC(=S)Nc1ccc([N+](=O)[O-])cc1)C2=O [BV3, 2-(2,2-dimethyl-5-oxo-3,4-dihydro-2H-benzo[h]chromen-6(5H)-ylidene)-N-(4nitrophen-yl)thio-carbohydrazide] | 4.69 | 2.13 | 4.69 to 5.55 | increases | significantly decreased cell viability | < 4.24 | 4.63 | 5.55 | 15.6 | 4.36 | 58 | 6.00 | 7 | 52 | 35 | 4.78 | 2.66 | 4.90 | 3.47 | pIC50 (GSK3β; dose–response curve, Figure 5): 6.00
Cc1ccc(NC(=S)N/N=C2\C(=O)C3=C(OC(C)(C)CC3)c3ccccc32)cc1 [BV5, 2-(2,2-dimethyl-5-oxo-3,4-dihydro-2H-benzo[h]chromen-6(5H)-ylidene)-N-(p-tolyl)-thiocarbohydrazide] | 4.43 |  | 4.43 to 4.81 |  | significantly decreased cell viability | < 4.21 | 4.61 | 4.75 |  | 4.88 | 64 | 5.31 | 24 | 83 | 56 | 4.81 |  | 4.75 |  | 
CC1(C)CCC2=C(O1)c1ccccc1C(=O)C2=O [β-lap, β-Lapachone] | 6.85 | 32.4 | 5.47 to 6.92 | increases | reduced the number of viable cells | 4.97 | 5.05 | 5.62 | 1.89 and 1.9 | 5.34 | 67 |  | 43 | 83 | 81 | 5.47 | 1.34 | 6.92 | 37.8 | early apoptosis compared to negative control (HeLa cells): significantly increased
